Data on 1 molecule can be found in publication PMC5653858, “A single extracellular amino acid in Free Fatty Acid Receptor 2 defines antagonist species selectivity and G protein selection bias” (Scientific Reports, 2017).

Residue numbers refer to the chain shown, from its start.

Test [1] has as its target T1, hFFA2 (Homo sapiens, UniProt O15552).
T1 sequence (O15552 1-330): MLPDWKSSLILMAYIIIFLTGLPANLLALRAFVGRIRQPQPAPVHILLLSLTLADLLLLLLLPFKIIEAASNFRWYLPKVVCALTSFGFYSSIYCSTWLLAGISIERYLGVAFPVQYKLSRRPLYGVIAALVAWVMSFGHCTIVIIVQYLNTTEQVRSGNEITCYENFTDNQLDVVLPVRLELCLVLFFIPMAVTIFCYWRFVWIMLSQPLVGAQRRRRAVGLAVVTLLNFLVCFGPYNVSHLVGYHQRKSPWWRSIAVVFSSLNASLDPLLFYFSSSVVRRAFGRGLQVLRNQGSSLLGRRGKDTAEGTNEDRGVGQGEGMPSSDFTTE
As to the kind of experiment: HTRF cAMP inhibition assay, wild type hFFA2. In kind it is cell-based. More on the design: expressed in transfected cells. As to conditions: inhibition of 1 μM forskolin-induced cAMP. As for the experimental part: (§1) All cAMP and inositol monophosphate experiments were performed using Flp-In T-REx HEK293 cells induced to express the receptor of interest. Experiments were carried out using respective homogenous time-resolved FRET-based detection kits (CisBio Bioassays; CisBio, Codolet, France) according to the manufacturer’s protocol. For the cAMP inhibition assay cells were plated at 2000 cells/well in low-volume 384-well plates. The ability of agonists to inhibit 1 μM forskolin-induced cAMP production was assessed following a co-incubation for 30 min with agonist compounds. For the inositol monophosphate accumulation assay cells were plated at 7500 cells/well in low-volume 384-well plates and incubated for 2 h at 37 °C with test compounds. To assess ability of antagonists to inhibit agonist responses, cells were pre-incubated with antagonist compounds for 30 min at 37 °C prior to addition of an EC80 concentration of agonist. Respective reactions were stopped according to the manufacturer’s instructions and the output was measured by with a PHERAstar FS plate reader (BMGLabtech, Aylesbury, UK).

Test [2] deals with T1, hFFA2. The test is described as follows: inositol monophosphate accumulation assay, wild type hFFA2. In kind it is cell-based. More on the design: expressed in transfected cells. As to conditions: wild type hFFA2. As for the experimental part: as §1
In test [3] the target is T2, Lys^65Ala hFFA2 (Homo sapiens, UniProt O15552, K65A).
T2 sequence (O15552 1-330 K65A): T1 sequence (O15552 1-330) with K65A
As to the kind of experiment: HTRF cAMP inhibition assay, Lys65Ala hFFA2. The test is classed as cell-based. Further details: NanoLuc Luciferase (N); eYFP; expressed in transfected cells; host or cells: Flp-In T-REx HEK293, doxycycline-induced. As to conditions: inhibition of 1 μM forskolin-induced cAMP, K65A hFFA2. As for the experimental part: as §1

Test [4] addresses T2, Lys^65Ala hFFA2. As to the kind of experiment: [35S]GTPγS incorporation assay, Lys65Ala hFFA2. In kind it is biochemical. More on the design: NanoLuc Luciferase (N); eYFP; expressed in transfected cells; host or cells: Flp-In T-REx HEK293, doxycycline-induced. As to conditions: membranes. As for the experimental part:
(§2) Initially, 5 μg of generated membrane protein was pre-incubated for 15 min at 25 °C in assay buffer (50 mM Tris-HCl, 10 mM MgCl2; 100 mM NaCl; 1 mM EDTA; 1 μM GDP; 0.1% fatty acid-free bovine serum albumin; pH 7.4) containing the indicated ligand concentrations. […] Unbound radioligand was removed from filters by three washes with ice-cold wash buffer (50 mM Tris-HCl, 10 mM MgCl2; pH 7.4) and filters were dried for 2–3 h at room temperature. Dried filters were added to 3 mL of Ultima Gold^TM XR (PerkinElmer Life Sciences, Beaconsfield, UK) and [^35S]GTPγS binding was determined by liquid scintillation spectrometry.

The target of test [5] is T3, Lys^65Glu hFFA2 (Homo sapiens, UniProt O15552, K65E).
T3 construct: NanoLuc Luciferase (N); eYFP; expressed in transfected cells; host or cells: Flp-In T-REx HEK293, doxycycline-induced
T3 sequence (O15552 1-330 K65E): T1 sequence (O15552 1-330) with K65E
As to the kind of experiment: [35S]GTPγS incorporation assay, Lys65Glu hFFA2. In kind it is biochemical. As to conditions: membranes. As for the experimental part:
as §2

In test [6] the target is T4, Lys^65Arg hFFA2 (Homo sapiens, UniProt O15552, K65R).
T4 construct: NanoLuc Luciferase (N); eYFP; expressed in transfected cells; host or cells: Flp-In T-REx HEK293, doxycycline-induced
T4 sequence (O15552 1-330 K65R): T1 sequence (O15552 1-330) with K65R
The test is described as follows: [35S]GTPγS incorporation assay, Lys65Arg hFFA2. The test is classed as biochemical. As to conditions: membranes. As for the experimental part: as §2

Test [7] concerns the target T4, Lys^65Arg hFFA2. As to the kind of experiment: HTRF cAMP inhibition assay, Lys65Arg hFFA2. The test is classed as cell-based. Particulars: inhibition of 1 μM forskolin-induced cAMP. How it is done: as §1
Test [8] deals with T3, Lys^65Glu hFFA2. As to the kind of experiment: inositol monophosphate accumulation assay, Lys65Glu hFFA2. The test is classed as cell-based. As for the experimental part:
as §1

The target of test [9] is T4, Lys^65Arg hFFA2. As to the kind of experiment: inositol monophosphate accumulation assay, Lys65Arg hFFA2. In kind it is cell-based. How it is done: as §1
In test [10] the target is T2, Lys^65Ala hFFA2. The test is described as follows: inositol monophosphate accumulation assay, Lys65Ala hFFA2. In kind it is cell-based. Further details: NanoLuc Luciferase (N); eYFP; expressed in transfected cells; host or cells: Flp-In T-REx HEK293, doxycycline-induced. How it is done:
as §1

In test [11] the target is T1, hFFA2. As to the kind of experiment: [35S]GTPγS incorporation assay, wild type hFFA2. More on the design: HA-tag (C); expressed in transfected cells; host or cells: HEK293, parental and CRISPR/Cas9 G protein-deleted lines, transient transfection. The test is classed as biochemical. As to conditions: membranes. How it is done: as §2
For test [12], the target named is T3, Lys^65Glu hFFA2. As to the kind of experiment: HTRF cAMP inhibition assay, Lys65Glu hFFA2. In kind it is cell-based. As to conditions: inhibition of 1 μM forskolin-induced cAMP, K65E hFFA2. How it is done:
as §1

On to `Cc1nc(NC(=N)N)sc1-c1cccc(NC(=O)c2ccc(F)cc2)c1` [AZ1729, N-[3-(2-carbamimidamido-4-methyl-1,3-thiazol-5-yl)phenyl]-4-fluoro benzamide], for which, in test [1], the “pEC50 cAMP, WT” value was found to be 6.35 ± 0.13. Also, the “accumulation of inositol monophosphates via hFFA2” value in test [2] is reported as “unable to promote accumulation of inositol monophosphates”. In addition, the “pEC50 cAMP, K65A” value in test [3] was determined as 6.42 ± 0.03. Further, in test [4], the “pEC50 GTPγS, K65A” value stood at 6.94 ± 0.14. The “pEC50 GTPγS, K65E” value in [5] was 6.79 ± 0.12. Also, the “pEC50 GTPγS, K65R” value in test [6] is recorded as 6.79 ± 0.07. Also, the “pEC50 cAMP, K65R” value in [7] stood at 6.47 ± 0.15. Also, the “inositol monophosphate production via Lys65Glu hFFA2” value in test [8] is “unable to promote inositol monophosphate production”. Besides, the “inositol monophosphate production via Lys65Arg hFFA2” value in [9] is given as “unable to promote inositol monophosphate production”. The “inositol monophosphate production via Lys65Ala hFFA2” value in test [10] is “unable to promote inositol monophosphate production”. For the same molecule, the “pEC50 GTPγS, WT” value in test [11] was 6.97 ± 0.02. In test [12], the “pEC50 cAMP, K65E” value is listed as 6.45 ± 0.15.
